Literature values in patent US12596089B2, “Devices, systems, and methods for antimicrobial susceptibility testing” (Avails Medical, Inc., priority 2022, dated 2026).

Key:
[1] = system: CDC-846 strain of E. coli; settings: stated as known
[2] = system: CDC-650 strain of E. coli; settings: stated as known

SMILES: CO/N=C(\C(=O)N[C@@H]1C(=O)N2C(C(=O)O)=C(CSc3nc(=O)c(=O)[nH]n3C)CS[C@H]12)c1csc(N)n1 [ceftriaxone]
- susceptibility of the bacteria to the anti-infective [1]: resistant
- susceptibility of the bacteria to the anti-infective [2]: highly susceptible
